Measurements taken from patent publication US20150239831A1, “INHIBITORS OF CENTRAL NERVOUS SYSTEM VASOACTIVE INHIBITORY PEPTIDE RECEPTOR 2” (The Trustees Of Columbia University In The City Of New York, priority 2012, published 2015).

Key:
[1] = target: T1, VIPR2 (Homo sapiens, UniProt P41587); experiment: Inhibition of VIP-induced cAMP elevation (% Activity cAMP); type: cell-based; design: expressed in transfected cells; host or cells: HEK293 cells transfected with VIPR2 in pCDNA3.1 (as described); settings: Batch 1
T1 sequence (P41587 24-438): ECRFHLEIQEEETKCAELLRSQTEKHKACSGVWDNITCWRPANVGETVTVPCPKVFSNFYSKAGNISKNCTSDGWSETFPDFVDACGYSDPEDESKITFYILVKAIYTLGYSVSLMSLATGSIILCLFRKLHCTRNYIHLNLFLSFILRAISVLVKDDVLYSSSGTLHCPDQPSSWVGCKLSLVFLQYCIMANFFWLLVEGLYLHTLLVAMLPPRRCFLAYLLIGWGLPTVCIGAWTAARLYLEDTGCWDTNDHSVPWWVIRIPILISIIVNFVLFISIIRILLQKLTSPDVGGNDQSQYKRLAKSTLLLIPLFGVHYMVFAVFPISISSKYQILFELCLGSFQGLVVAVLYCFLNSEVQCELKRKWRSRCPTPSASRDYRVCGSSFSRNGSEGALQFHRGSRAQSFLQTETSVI
Summary of the method: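 HEK293 cells stably transfected with human VIPR2 were incubated with inhibitor and VIP for 30 min, then cAMP was detected by HTRF after at least 1 h at room temperature. The 665/620 nm ratio ×10,000 was calculated.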

[2] = target: T1, VIPR2; experiment: % Activity: inhibition of VIP-induced cAMP elevation and β-arrestin recruitment (Table 2); type: cell-based; design: expressed in transfected cells; host or cells: HEK293 cells transfected with VIPR2 in pCDNA3.1 (as described)
Summary of the method: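 Recruitment of β-arrestin measured by β-gal fragment complementation luminescence in HEK293 cells co-expressing VIPR2-ProLink and β-arrestin2-EA after 2 h compound at 37° C. VIP-driven cAMP rise in stable hVIPR2 HEK293 cells measured by HTRF after 30 min with inhibitor and VIP.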

inhibition at 0.5 µM [1] [%] | inhibition at 1 µM [1] [%] | inhibition at 5 µM [1] [%] | % Activity [2] [%] | SMILES
27.3 | 43.6 | 93.1 | 91.75 | N#Cc1ccc(S(=O)(=O)NC[C@@H](O)C[C@@H](Cc2ccccc2)C(=O)N[C@H]2c3ccccc3C[C@H]2O)cc1 [C]
36.5 | 44.2 | 98.2 | 92.95 | CC(C)c1ccc(S(=O)(=O)NC[C@@H](O)C[C@@H](Cc2ccccc2)C(=O)N[C@H]2c3ccccc3C[C@H]2O)cc1 [Compound A10]
33.9 | 45.9 | 93.8 | 91.6 | COc1ccc(S(=O)(=O)NC[C@@H](O)C[C@@H](Cc2ccccc2)C(=O)N[C@H]2c3ccccc3C[C@H]2O)cc1 [E]
42 | 63.1 | 98.5 | 95.7 | O=C(N[C@H]1c2ccccc2C[C@H]1O)[C@H](Cc1ccccc1)C[C@H](O)CNS(=O)(=O)c1ccc(C(F)(F)F)cc1 [F]
42.2 | 63.5 | 98.2 | 94.1 | Cc1ccc(S(=O)(=O)NC[C@@H](O)C[C@@H](Cc2ccccc2)C(=O)N[C@H]2c3ccccc3C[C@H]2O)cc1 [I]
38.6 | 61.1 | 96 | 92.35 | CC(=O)c1ccc(S(=O)(=O)NC[C@@H](O)C[C@@H](Cc2ccccc2)C(=O)N[C@H]2c3ccccc3C[C@H]2O)cc1 [K]
